Measured values published in patent EP2356213B1, “STEM CELL AGGREGATE SUSPENSION COMPOSITIONS AND METHODS FOR DIFFERENTIATION THEREOF” (VIACYTE, INC., priority 2008, dated 2010).
Entries after “also recorded” stand apart in the source; their conditions may differ.

Assays:
BGOlv cells = experiment: Effect of ErbB tyrosine kinase inhibitors on proliferation of BG01v hESCs (alkaline phosphatase staining after 5 days); assay type: cell-based
Protocol: The EGF domain family of ligands bind to the ErbB family of receptor tyrosine kinases. To examine the effect of known inhibitors of ErbB tyrosine kinases in hESCs, BGOlv cells were plated in 6 well trays on MATRIGEL™ diluted at 1:1000, in defined culture medium (DC) containing 100 ng/mL LongR3-IGFl, 8 ng/mL FGF2 and 1 ng/mL Activin A. On the next day, DMSO (carrier control), 50 nM-20 µM AG1478 (an ErbB1 inhibitor), or 100 nM-20 µM AG879 (an ErbB2 inhibitor) was added with fresh medium. The cells were cultured for an additional 5 days, with daily media changes. The cultures were then fixed and stained for alkaline phosphatase activity.

R1 mouse ES cells = experiment: Effect of ErbB1/ErbB2 inhibitors on proliferation of mouse ES cells (alkaline phosphatase staining, 8 days); assay type: cell-based
Protocol: AG1478 and AG879 were used to examine the role of HRG/ErbB signaling in mouse ES cells. R1 mouse ES cells were maintained in standard conditions in DMEM, 10% FBS, 10% KSR, 0.5 U/mL penicillin, 0.5 U/mL streptomycin, 1xNEAA, 1 mM sodium pyruvate, 1000 U/mL LIF (ESGRO), 0.1 mM β-ME, and were passaged with 0.5% trypsin/EDTA. 2x10^5 cells/well were plated in 6 well trays on MATRIGEL™ diluted at 1:1000. The day after plating, DMSO (carrier control), 1-50 µM AG1478, or 1-50 µM AG879 was added with fresh medium. The cells were cultured an additional 8 days, with daily media changes. The cultures were then fixed and stained for alkaline phosphatase activity.

ES cells = experiment: Suspension cultures in various media, cell counting; assay type: cell-based; details: added to HAIF, HAI, HI
Protocol: To determine if suspensions of ES cells could be cultured in the absence of FGF2 and/or Activin A, ES cells were cultured in a variety of media, with and without these factors. […] In addition, the cells in each media were successfully passaged with no morphological signs of differentiation. Table 3 - Suspension Cultures in Various Media

[1] = test system: pancreatic epithelial and endocrine type cells; experiment: Re-aggregation of dissociated stage 4 or stage 5 adherent cultures with ROCK inhibitor; assay type: cell-based, human; details: 10µM
Protocol: Adherent cultures at either stage 4 (about d10 - d14 into the differentiation protocol; pancreatic epithelial and endocrine type cells) or stage 5 (about day 16 to day 30 into the differentiation protocol; endocrine precursor and endocrine cells) were similarly dissociated into single cells, counted, and pelleted. The cell pellet was then resuspended in DMEM CMRL supplemented Pen/Strep and Glutamax, and IX B27-supplement and DNase (50-100 µg/ml, Roche Diagnostics) and 0-2% FBS. […] Cells were equally distributed into 6-well plates and placed on a rotating platform at 100 rpm to 140 rpm form 4 hours to overnight substantially as described above.

BG02 cells = experiment: Suspension cultures with and without an apoptosis inhibitor, cell counting; assay type: cell-based, human
Protocol: To attenuate the loss of cells after initial passaging in suspension, an inhibitor of apoptosis was added to the medium. Cells were passaged as in Example 12, except that Y-27632, an inhibitor of p160-Rho-associated coiled-coil kinase (ROCK), was added to the medium.
Suspension aggregates of BG02 cells were formed by seeding 2x10^6 single cells in 6-well dishes in 3 mL DC-HAIF medium, at 100 rpm on a rotating platform in an incubator (Table 2, Experiment A). 10 µM Y27632 ROCK inhibitor was added to test wells for the course of the experiment and the cultures observed daily and counted after 24 hours (day 1) and after 4 or 5 days. […] Cell counting confirmed that more viable cells were present in the presence of inhibitor (Table 2, Experiment A). This difference in cell number persisted throughout the course of the culture period, with more cells also observed on day 4, compared to cultures without inhibitor. As with previous suspension culture experiments, cells exposed to Y27632 could also be serially passaged, and maintained in an undifferentiated state (not shown).
As previous experiments had shown that growth rates of cells in suspension and adherent culture were similar after the initial 24 hours, an experiment was performed where Y27632 was removed after this initial period (Table 2, Experiment B). […] 1.4x10^7 (+Y27632) and 1.8x107 (+/-Y27632) viable cells were generated when inhibitor was present compared to 3.9x10^6 cells in untreated cultures. This analysis confirmed that Y27632 had the largest impact during the first 24 hours of suspension hESC culture.
Because of the enhanced survival and aggregation observed in the presence of Y27632, an experiment was performed to examine if it was possible to reduce the number of cells used to seed suspension cultures (Table 2, Experiment C). […] To determine if addition of a ROCK inhibitor would allow cell seeding at lower densities, a range of cell concentrations (from about 2x10^6 total cells down to about 1x10^5 total cells was used to seed suspension cultures in 6-well trays cells in 3 mL DC-HAIF. 10 µM Y27632 was added to all conditions, and the cell number and viability assessed on day 5. Successful aggregation and expansion was observed even at low seeding densities. An approximately 13 fold expansion of viable cells was observed even cultures that were only seeded with 1x10^5 cells. Inhibition of ROCK with Y27632 therefore facilitated initial survival of hESCs at much lower densities in this suspension system. Table 2 - Suspension Cultures with and without an Apoptosis Inhibitor

BG02 hESCs = experiment: Proliferation of hESCs in conditioned medium with AG825; assay type: cell-based, human
From the text: (§1) Colony and cell-counting assays confirmed that LongR3-IGFl and HRG played the major roles in self-renewal and proliferation in the context of one of the embodiments of the present invention (Fig. 6D, 6E). Phosphorylation of IGF1R, IR, […], ErbB2, and ErbB3 was also observed in both steady-state DC-HAIF cultures, and in starved cultures that were pulsed with DC-HAIF (Fig. 6F).

ErbB2 = target: T1, ErbB2 (Homo sapiens, UniProt P04626); experiment: Western blotting of ErbB2 autophosphorylation in starved/heregulin pulsed hESCs; assay type: cell-based; details: starved/heregulin (HRG) pulsed hESCs in DC-HAIF
T1 construct: endogenous in cells; host or cells: human embryonic stem cells (hESCs) growing in DC-HAIF
T1 sequence (P04626 23-1255): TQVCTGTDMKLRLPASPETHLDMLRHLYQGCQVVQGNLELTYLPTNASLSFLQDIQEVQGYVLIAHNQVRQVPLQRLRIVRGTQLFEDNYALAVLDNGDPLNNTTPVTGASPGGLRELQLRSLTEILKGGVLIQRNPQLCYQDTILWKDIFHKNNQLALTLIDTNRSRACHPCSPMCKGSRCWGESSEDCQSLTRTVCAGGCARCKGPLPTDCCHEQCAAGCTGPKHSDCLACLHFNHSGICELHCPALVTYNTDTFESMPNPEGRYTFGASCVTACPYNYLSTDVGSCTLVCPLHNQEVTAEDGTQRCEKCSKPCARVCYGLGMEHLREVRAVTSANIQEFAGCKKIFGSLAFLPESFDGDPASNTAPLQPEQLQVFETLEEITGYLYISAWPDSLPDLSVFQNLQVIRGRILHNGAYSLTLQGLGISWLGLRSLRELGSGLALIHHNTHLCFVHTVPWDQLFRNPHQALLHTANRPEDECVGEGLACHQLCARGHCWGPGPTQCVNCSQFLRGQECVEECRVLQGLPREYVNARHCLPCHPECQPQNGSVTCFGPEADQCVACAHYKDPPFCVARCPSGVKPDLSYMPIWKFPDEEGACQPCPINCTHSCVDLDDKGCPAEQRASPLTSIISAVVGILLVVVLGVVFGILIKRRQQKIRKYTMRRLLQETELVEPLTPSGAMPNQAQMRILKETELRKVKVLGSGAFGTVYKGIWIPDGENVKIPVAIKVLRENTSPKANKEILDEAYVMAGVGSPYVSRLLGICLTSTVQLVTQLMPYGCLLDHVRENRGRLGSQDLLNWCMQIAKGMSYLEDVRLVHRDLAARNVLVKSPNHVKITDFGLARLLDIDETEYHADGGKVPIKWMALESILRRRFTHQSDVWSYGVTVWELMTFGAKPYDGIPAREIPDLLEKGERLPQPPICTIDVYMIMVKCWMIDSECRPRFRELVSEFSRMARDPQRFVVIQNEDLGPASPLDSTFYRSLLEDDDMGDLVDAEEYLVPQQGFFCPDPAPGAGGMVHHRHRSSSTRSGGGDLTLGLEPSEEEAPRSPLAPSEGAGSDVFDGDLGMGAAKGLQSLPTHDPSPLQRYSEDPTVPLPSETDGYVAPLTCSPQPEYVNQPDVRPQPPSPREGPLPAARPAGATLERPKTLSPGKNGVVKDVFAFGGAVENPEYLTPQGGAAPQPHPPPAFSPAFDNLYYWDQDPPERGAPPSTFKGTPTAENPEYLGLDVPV
From the text: as §1

[2] = Expt. A, seeding 2x10^6, p0, day 1
[3] = Expt. A, seeding 2x10^6, p0, day 4
[4] = Expt. A, seeding 2x10^6, p1, day 4
[5] = Expt. B, seeding 2x10^6, p0, day 1
[6] = Expt. B, seeding 2x10^6, p0, day 5, +/-Y27632 = inhibitor removed after 24 hours, listed as +/-Y27632
[7] = Expt. B, seeding 2x10^6, p0, day 5, +/-Y27632 = inhibitor removed after 24 hours, listed as +Y27632
[8] = Expt. C, seeding 1x10^6, p0, day 1
[9] = Expt. C, seeding 1x10^6, p0, day 5
[10] = Expt. C, seeding 2x10^6, p0, day 1
[11] = Expt. C, seeding 2x10^6, p0, day 5
[12] = Expt. C, seeding 2.5x10^5, p0, day 1
[13] = Expt. C, seeding 2.5x10^5, p0, day 5
[14] = Expt. C, seeding 5x10^5, p0, day 1
[15] = Expt. C, seeding 5x10^5, p0, day 5
[16] = Expt. C, seeding 10^5, p0, day 1
[17] = Expt. C, seeding 10^5, p0, day 5

SMILES: CC(C)(C)c1cc(/C=C(\C#N)C(N)=S)cc(C(C)(C)C)c1O [AG879]
- cell growth (BGOlv cells; at 5 µM, 5 days): substantially inhibited cell growth; also recorded: substantially slowed cell growth
- cell death (BGOlv cells; at 20 µM): caused cell death
- differentiation (BGOlv cells; cultures grown in AG879): inhibit proliferation without inducing differentiation
- proliferation (R1 mouse ES cells; at 20 µM): may have slowed proliferation
- cell growth (R1 mouse ES cells; at 50 µM): substantially inhibited cell growth
- differentiation (R1 mouse ES cells; mESCs grown in AG879): did not appear to differentiate
- concentration required to inhibit proliferation, mESCs relative to BG01v cells (R1 mouse ES cells; mESCs vs BG01v cells grown in defined conditions): ~10 x

SMILES: C[C@@H](N)[C@H]1CC[C@H](C(=O)Nc2ccncc2)CC1 [Y27632]
- yield of cells generated by day 5 (ES cells): increased the yield of cells generated by day 5 in all conditions
- cell survival [1]: supported cell survival
- expansion of viable cells (BG02 cells; 10 µM Y27632, seeded with 1x10^5 cells, day 5): approximately 13 fold
- initial aggregation in suspension culture (BG02 cells; 10 µM, compared to medium without inhibitor): much larger aggregates were formed
- differentiation state by RT-PCR (BG02 cells; BG02 suspension culture in the presence of Y27632): remained undifferentiated
- cell number when the aggregates were split again (BG02 cells; Expt. A, p1, vs without inhibitor): almost twice as many cells were observed
- Cell counts: total (BG02 cells; [2]): 1.6x10^6
- Cell counts: viable (BG02 cells; [2]): 1.2x10^6
- Cell counts: viable, % (BG02 cells; [2]): 74%
- Cell counts: total (BG02 cells; [3]): 7.8x10^6
- Cell counts: viable (BG02 cells; [3]): 7.1x10^6
- Cell counts: viable, % (BG02 cells; [3]): 91%
- Cell counts: total (BG02 cells; [4]): 4.6x10^6
- Cell counts: viable (BG02 cells; [4]): 4.2x10^6
- Cell counts: viable, % (BG02 cells; [4]): 91%
- Cell counts: total (BG02 cells; [5]): 1.9x10^6
- Cell counts: viable (BG02 cells; [5]): 1.4x10^6
- Cell counts: viable, % (BG02 cells; [5]): 73%
- Cell counts: total (BG02 cells; [6]): 1.9x10^7
- Cell counts: viable (BG02 cells; [6]): 1.8x10^7
- Cell counts: viable, % (BG02 cells; [6]): 96%
- Cell counts: total (BG02 cells; [7]): 1.5x10^7
- Cell counts: viable (BG02 cells; [7]): 1.4x10^7
- Cell counts: viable, % (BG02 cells; [7]): 92%
- Cell counts: total (BG02 cells; [8]): 8.7x10^5
- Cell counts: viable (BG02 cells; [8]): 6.6x10^5
- Cell counts: viable, % (BG02 cells; [8]): 76%
- Cell counts: total (BG02 cells; [9]): 8.6x10^6
- Cell counts: viable (BG02 cells; [9]): 7.8x10^6
- Cell counts: viable, % (BG02 cells; [9]): 91%
- Cell counts: total (BG02 cells; [10]): 1.9x10^6
- Cell counts: viable (BG02 cells; [10]): 1.6x10^6
- Cell counts: viable, % (BG02 cells; [10]): 84%
- Cell counts: total (BG02 cells; [11]): 1.4x10^7
- Cell counts: viable (BG02 cells; [11]): 1.2x10^7
- Cell counts: viable, % (BG02 cells; [11]): 90%
- Cell counts: total (BG02 cells; [12]): 2.6x10^5
- Cell counts: viable (BG02 cells; [12]): 2.3x10^5
- Cell counts: viable, % (BG02 cells; [12]): 91%
- Cell counts: total (BG02 cells; [13]): 2.7x10^6
- Cell counts: viable (BG02 cells; [13]): 2.5x10^6
- Cell counts: viable, % (BG02 cells; [13]): 91%
- Cell counts: total (BG02 cells; [14]): 4.6x10^5
- Cell counts: viable (BG02 cells; [14]): 3.5x10^5
- Cell counts: viable, % (BG02 cells; [14]): 75%
- Cell counts: total (BG02 cells; [15]): 5.7x10^6
- Cell counts: viable (BG02 cells; [15]): 5.3x10^6
- Cell counts: viable, % (BG02 cells; [15]): 93%
- Cell counts: total (BG02 cells; [16]): 6.8x10^4
- Cell counts: viable (BG02 cells; [16]): 5.4x10^4
- Cell counts: viable, % (BG02 cells; [16]): 79%
- Cell counts: total (BG02 cells; [17]): 1.4x10^6
- Cell counts: viable (BG02 cells; [17]): 1.3x10^6
- Cell counts: viable, % (BG02 cells; [17]): 92%

SMILES: COc1cc2ncnc(Nc3cccc(Cl)c3)c2cc1OC [AG1478]
- cell proliferation (BGOlv cells; 50 nM-20 µM, 5 days, DC medium): neither DMSO nor AG1478 (50 nM-20 µM) had an apparent affect on cell proliferation; also recorded: did not appear to affect proliferation
- cell proliferation (R1 mouse ES cells; 1-50 µM, 8 days, 10% FBS, 10% KSR, LIF): no apparent affect on cell proliferation; also recorded: did not overtly inhibit proliferation

SMILES: COc1cc(C=C(C#N)C(N)=O)cc(CSc2nc3ccccc3s2)c1O [AG825, tyrphostin AG825]
- proliferation (BG02 hESCs; 50 µM, conditioned medium (CM)): significantly inhibited proliferation
- time viable hESCs could be maintained (BG02 hESCs; in presence of AG825): > 5 days
- autophosphorylation of ErbB2 at tyrosine-1248 (ErbB2): inhibited autophosphorylation of ErbB2 at tyrosine-1248; also recorded: inhibits ErbB2 Y1248 phosphorylation
